Results as given in patent publication US9447122B2, “Arginase inhibitors and methods of use thereof” (AstraZeneca AB, priority 2010, dated 2016).
Like-named read-outs stand apart in the source and are kept apart here.

Tests used:
human arginase II = biological target: T1, human arginase II (Homo sapiens, UniProt P78540); test: Arginase inhibition, QuantiChrom colorimetric urea assay, IC50 converted to Ki; format: biochemical; settings: Table 3
T1 sequence (P78540 23-354): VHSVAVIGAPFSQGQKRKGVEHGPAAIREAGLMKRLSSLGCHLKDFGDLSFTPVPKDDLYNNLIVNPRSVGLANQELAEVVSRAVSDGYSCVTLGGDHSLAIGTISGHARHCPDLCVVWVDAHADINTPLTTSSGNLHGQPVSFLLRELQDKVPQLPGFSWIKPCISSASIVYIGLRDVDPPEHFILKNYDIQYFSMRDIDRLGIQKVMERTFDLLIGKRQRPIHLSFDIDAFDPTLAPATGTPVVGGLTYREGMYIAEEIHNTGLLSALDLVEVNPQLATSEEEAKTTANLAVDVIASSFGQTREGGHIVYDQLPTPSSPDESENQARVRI
Experimental: (§1) For some compounds, their inhibitory potency at pH 7.5 was compared to the inhibitory potency of ABH at pH 7.5.
(§2) Quantitative determination of arginase activity was performed in a 96-well format by a colorimetric method using the QuantiChrom™ Arginase Assay Kit available from BioAssay Systems (Hayward, Calif., Catalog No. DARG-200) according to the manufacturer's protocol. Modifications were made to reagent quantities to suit the assaying of a highly purified sample.
(§3) The intensity of the color was directly proportional to the arginase activity in the sample.
(§4) The rate of urea production was measured in the presence of twelve different concentrations of each potential inhibitor compound. In a typical assay, seven different compounds were tested relative to a control inhibitor (e.g. ABH) against one enzyme (either human ArgI or human ArgII) at a particular pH (either 9.5 or 7.5). The pH of the solution was controlled using an appropriate pH buffering compound at 60 mM concentrations; for example, 60 mM glycine (pH 9.5) or 60 mM HEPES (pH 7.5). The half maximal inhibitory concentration (IC50) was determined by constructing a dose-response curve.

human arginase I = biological target: T2, human arginase I (Homo sapiens, UniProt P05089); test: as above; format: biochemical; settings: Table 3
T2 sequence (P05089 1-322): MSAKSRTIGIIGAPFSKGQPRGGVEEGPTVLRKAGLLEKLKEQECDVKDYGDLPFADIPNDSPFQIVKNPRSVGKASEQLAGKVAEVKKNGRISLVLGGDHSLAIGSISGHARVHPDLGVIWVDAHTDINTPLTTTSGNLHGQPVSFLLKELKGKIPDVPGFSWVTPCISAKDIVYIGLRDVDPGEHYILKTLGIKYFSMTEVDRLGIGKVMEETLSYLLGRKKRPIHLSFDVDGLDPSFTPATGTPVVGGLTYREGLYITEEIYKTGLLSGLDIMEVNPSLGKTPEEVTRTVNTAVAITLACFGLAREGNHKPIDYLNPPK
Experimental: as §1, §2, §3, §4

[1] = pH 7.5, read-out: human Arginase II pH 7.5, Ki assigned value
[2] = pH 9.5, read-out: human Arginase II pH 9.5, Ki assigned value
[3] = pH 7.5, read-out: human Arginase I pH 7.5, Ki assigned value
[4] = pH 9.5, read-out: human Arginase I pH 9.5, Ki assigned value

Structure (SMILES): NC(CCCCB(O)O)(CCCCN1CCC(Cc2ccc(F)c(F)c2)CC1)C(=O)O (stereo not shown) [Example 95]
- Ki (human arginase II; [1]): 11 to 50 nM
- Ki (human arginase II; [2]): < 10 nM
- Ki (human arginase I; [3]): 51 to 100 nM
- Ki (human arginase I; [4]): < 10 nM

Structure (SMILES): COc1ccc(C2CCN(CCCC(N)(CCCCB(O)O)C(=O)O)CC2)cc1 (stereo not shown) [Example 37]
- Ki (human arginase II; [1]): < 10 nM
- Ki (human arginase II; [2]): 11 to 50 nM
- Ki (human arginase I; [3]): < 10 nM
- Ki (human arginase I; [4]): < 10 nM

Structure (SMILES): CN(C)CCN(C)CCCC(N)(CCCCB(O)O)C(=O)O (stereo not shown) [Example 88]
- Ki (human arginase II; [1]): 51 to 100 nM
- Ki (human arginase II; [2]): 51 to 100 nM
- Ki (human arginase I; [3]): 51 to 100 nM
- Ki (human arginase I; [4]): 11 to 50 nM

Structure (SMILES): NC(CCCCB(O)O)(CCCN1CCC1)C(=O)O (stereo not shown) [Example 57]
- Ki (human arginase II; [1]): 11 to 50 nM
- Ki (human arginase II; [2]): 51 to 100 nM
- Ki (human arginase I; [3]): < 10 nM
- Ki (human arginase I; [4]): 11 to 50 nM

Structure (SMILES): NC(CCCCB(O)O)(CCCN1CCN(c2ccc(C(F)(F)F)cn2)CC1)C(=O)O (stereo not shown) [Example 41]
- Ki (human arginase II; [1]): < 10 nM
- Ki (human arginase II; [2]): 11 to 50 nM
- Ki (human arginase I; [3]): < 10 nM
- Ki (human arginase I; [4]): 11 to 50 nM

Structure (SMILES): NC(CCCCB(O)O)(CCN1CCN(Cc2ccc(Cl)c(Cl)c2)CC1)C(=O)O (stereo not shown) [Example 15]
- Ki (human arginase II; [1]): > 400 nM
- Ki (human arginase II; [2]): 51 to 100 nM
- Ki (human arginase I; [3]): 101 to 250 nM
- Ki (human arginase I; [4]): 101 to 250 nM

Structure (SMILES): NC(CCCCB(O)O)(CCCN1CCN(Cc2cccc(F)c2F)CC1)C(=O)O (stereo not shown) [Example 7]
- Ki (human arginase II; [1]): 11 to 50 nM
- Ki (human arginase II; [2]): 51 to 100 nM
- Ki (human arginase I; [3]): < 10 nM
- Ki (human arginase I; [4]): 11 to 50 nM

Structure (SMILES): NC(CCCCB(O)O)(CCCN1CCC(Oc2ccc(C(F)(F)F)cc2)CC1)C(=O)O (stereo not shown) [Example 34]
- Ki (human arginase II; [1]): < 10 nM
- Ki (human arginase II; [2]): 11 to 50 nM
- Ki (human arginase I; [3]): < 10 nM
- Ki (human arginase I; [4]): < 10 nM

Structure (SMILES): NC(CCCCB(O)O)(CCCN1CCC(C(=O)c2ccc(F)cc2)CC1)C(=O)O (stereo not shown) [Example 101]
- Ki (human arginase II; [1]): < 10 nM
- Ki (human arginase II; [2]): 11 to 50 nM
- Ki (human arginase I; [3]): < 10 nM
- Ki (human arginase I; [4]): 11 to 50 nM

Structure (SMILES): NC(CCCCB(O)O)(CCCN1CCCC1)C(=O)O (stereo not shown) [Example 56]
- Ki (human arginase II; [1]): 51 to 100 nM
- Ki (human arginase II; [2]): 101 to 250 nM
- Ki (human arginase I; [3]): 11 to 50 nM
- Ki (human arginase I; [4]): 11 to 50 nM

Structure (SMILES): CN(CCCC(N)(CCCCB(O)O)C(=O)O)C1CCCCC1 (stereo not shown) [Example 78]
- Ki (human arginase II; [1]): 51 to 100 nM
- Ki (human arginase II; [2]): 11 to 50 nM
- Ki (human arginase I; [3]): 11 to 50 nM
- Ki (human arginase I; [4]): 11 to 50 nM

Structure (SMILES): NC(CCCCB(O)O)(CCCN1CCCC1c1ccc(-c2ccccc2)cc1)C(=O)O (stereo not shown) [Example 54]
- Ki (human arginase II; [1]): 11 to 50 nM
- Ki (human arginase II; [2]): 51 to 100 nM
- Ki (human arginase I; [3]): 11 to 50 nM
- Ki (human arginase I; [4]): 11 to 50 nM

Structure (SMILES): COCCN(C)CCCC(N)(CCCCB(O)O)C(=O)O (stereo not shown) [Example 85]
- Ki (human arginase II; [1]): 11 to 50 nM
- Ki (human arginase II; [2]): 101 to 250 nM
- Ki (human arginase I; [3]): 11 to 50 nM
- Ki (human arginase I; [4]): 11 to 50 nM

Structure (SMILES): NC(CCCCB(O)O)(CCCN1CCOCC1)C(=O)O (stereo not shown) [Example 64]
- Ki (human arginase II; [1]): 11 to 50 nM
- Ki (human arginase II; [2]): 51 to 100 nM
- Ki (human arginase I; [3]): < 10 nM
- Ki (human arginase I; [4]): 11 to 50 nM

Structure (SMILES): NC(CCCCB(O)O)(CCCN1CC(NC(=O)Nc2ccc(Cl)c(Cl)c2)C1)C(=O)O (stereo not shown) [Example 60]
- Ki (human arginase II; [1]): < 10 nM
- Ki (human arginase II; [2]): 11 to 50 nM
- Ki (human arginase I; [3]): < 10 nM
- Ki (human arginase I; [4]): < 10 nM

Structure (SMILES): CN(CCCC(N)(CCCCB(O)O)C(=O)O)CCc1ccccc1 (stereo not shown) [Example 68]
- Ki (human arginase II; [1]): 11 to 50 nM
- Ki (human arginase II; [2]): 11 to 50 nM
- Ki (human arginase I; [3]): 11 to 50 nM
- Ki (human arginase I; [4]): 11 to 50 nM

Structure (SMILES): CN1CCN(CCCC(N)(CCCCB(O)O)C(=O)O)CC1 (stereo not shown) [Example 106]
- Ki (human arginase II; [1]): 11 to 50 nM
- Ki (human arginase II; [2]): 251 to 400 nM
- Ki (human arginase I; [3]): 11 to 50 nM
- Ki (human arginase I; [4]): 11 to 50 nM

Structure (SMILES): NC(CCCCB(O)O)(CCCN1C2CCC1CC(n1cnc3ccccc31)C2)C(=O)O (stereo not shown) [Example 102]
- Ki (human arginase II; [1]): < 10 nM
- Ki (human arginase II; [2]): 11 to 50 nM
- Ki (human arginase I; [3]): < 10 nM
- Ki (human arginase I; [4]): 11 to 50 nM

Structure (SMILES): NC(CCCCB(O)O)(CCCN1CCN(Cc2cccc(C(F)(F)F)c2)CC1)C(=O)O (stereo not shown) [Example 9]
- Ki (human arginase II; [1]): 11 to 50 nM
- Ki (human arginase II; [2]): 11 to 50 nM
- Ki (human arginase I; [3]): < 10 nM
- Ki (human arginase I; [4]): 51 to 100 nM

Structure (SMILES): NC(CCCCB(O)O)(CCCN1CCC(O)(c2ccc(Cl)cc2)CC1)C(=O)O (stereo not shown) [Example 40]
- Ki (human arginase II; [1]): < 10 nM
- Ki (human arginase II; [2]): 11 to 50 nM
- Ki (human arginase I; [3]): < 10 nM
- Ki (human arginase I; [4]): < 10 nM

Structure (SMILES): NC(CCCCB(O)O)(CCCCN1CCN(c2ccc(Cl)c(Cl)c2)CC1)C(=O)O (stereo not shown) [Example 94]
- Ki (human arginase II; [1]): < 10 nM
- Ki (human arginase II; [2]): 11 to 50 nM
- Ki (human arginase I; [3]): 11 to 50 nM
- Ki (human arginase I; [4]): 11 to 50 nM

Structure (SMILES): NC(CCCCB(O)O)(CCCN1CCC(NC(=O)c2ccccc2)CC1)C(=O)O (stereo not shown) [Example 44]
- Ki (human arginase II; [1]): < 10 nM
- Ki (human arginase II; [2]): 11 to 50 nM
- Ki (human arginase I; [3]): < 10 nM
- Ki (human arginase I; [4]): 11 to 50 nM
